In patent US9108923B2, “Compounds, compositions, and methods for cancer therapy” (The Broad Institute, Inc., priority 2012, dated 2015):
Where two headings read alike, the source gives them in different places.

Columns and labels:
H1703 = assay: ATP Assay (CellTiter-Glo), cellular ATP levels as surrogate for cell viability; type: cell-based, human; conditions: cellular ATP levels, 48 h, read-out: EC50 H1703
Description: (§1) ATP Assay. […] At that time, media was removed and replaced with a solution of CellTiter-Glo reagent (Promega) in PBS. After ten minutes, luminescence was read using an EnVision multilabel plate reader (Perkin-Elmer) and signal intensity was calculated relative to in-plate DMSO control wells.
(§2) We next sought to determine the performance of the synthetic analogs relative to PL in cells. […] As a second assay, effects of compound treatments on ATP levels, a surrogate for cell viability, were measured after 48 hours.
(§3) Assays were performed in 384-well plates on two human cancer cell lines, H1703 (lung) and HeLa (cervix).

HeLa = assay: as above; type: cell-based, human; conditions: cellular ATP levels, 48 h, read-out: EC50 HeLa
Description: as §1, §2, §3

[1] = Homo sapiens, NCI-H1703, Table 1
[2] = Homo sapiens, NCI-H1703, Table 2

Row | Structure (SMILES) | EC50 (H1703; [2]) | EC50 (HeLa; Homo sapiens, HeLa, Table 2) | further results
1 | COC(=O)CSC1CCN(C(=O)/C=C/c2cc(OC)c(OC)c(OC)c2)C(=O)C1 (stereo not shown) [Cpd. 7] | – | – | EC50 (H1703; [1]): 7.9 µM; EC50 (HeLa; Homo sapiens, HeLa, Table 1): > 20 µM
2 | COc1cc(/C=C/C(=O)N2CCC=C(C)C2=O)cc(OC)c1OC [compound 3, (E)-3-methyl-1-(3-(3,4,5-trimethoxyphenyl)prop-2-enoyl)-5,6-dihydropyridin-2(1H)-one] | – | – | EC50 (H1703; [1]): > 20 µM; EC50 (H1703; Table 2): > 20 µM; EC50 (HeLa; Homo sapiens, HeLa, Table 1): > 20 µM; EC50 (HeLa; Table 2): > 20 µM
3 | COc1cc(/C=C/C(=O)N2C(=O)C=CCC2c2cccnc2)cc(OC)c1OC (stereo not shown) [compound 8] | 3 µM | 6 µM | –
4 | COc1cc(/C=C/C(=O)N2CCC(C)=CC2=O)cc(OC)c1OC [compound 8] | – | – | EC50 (H1703; [1]): > 20 µM; EC50 (HeLa; Homo sapiens, HeLa, Table 1): > 20 µM
5 | C/C(=C\C(=O)N1CCC=CC1=O)c1ccccc1 [compound 9] | – | – | EC50 (H1703; [1]): 14 µM; EC50 (HeLa; Homo sapiens, HeLa, Table 1): > 20 µM
6 | COc1ccc(C2CC=CC(=O)N2C(=O)/C=C/c2cc(OC)c(OC)c(OC)c2)cc1 (stereo not shown) [compound 9] | 4 µM | 7 µM | –
7 | O=C1C=CCCN1C(=O)c1cc2ccccc2s1 [compound 10] | – | – | EC50 (H1703; [1]): 18 µM; EC50 (HeLa; Homo sapiens, HeLa, Table 1): > 20 µM
8 | COc1cc2c(c(OC)c1OC)CCC(C(=O)N1CCC=CC1=O)=C2 [compound 11] | – | – | EC50 (H1703; [1]): 14 µM; EC50 (HeLa; Homo sapiens, HeLa, Table 1): > 20 µM
9 | COc1cc(/C=C/C(=O)N2C(=O)C=CCC2C2CCCC2)cc(OC)c1OC (stereo not shown) [compound 12] | 6 µM | 6 µM | –
10 | O=C1C=CCCN1C(=O)/C=C/c1ccccc1Cl [compound 13] | – | – | EC50 (H1703; [1]): 4 µM; EC50 (HeLa; Homo sapiens, HeLa, Table 1): 7.5 µM
11 | COc1cc(/C=C/C(=O)N2C(=O)C=CCC2c2ccccc2)cc(OC)c1OC (stereo not shown) [compound 14] | – | – | EC50 (H1703; [1]): 3.6 µM; EC50 (HeLa; Homo sapiens, HeLa, Table 1): 6.8 µM
12 | COc1cc(/C=C/C(=O)N2CC(c3cccs3)C=CC2=O)cc(OC)c1OC (stereo not shown) [compound 15] | – | – | EC50 (H1703; [1]): 6.5 µM; EC50 (HeLa; Homo sapiens, HeLa, Table 1): 15 µM
13 | O=C1C=CCCN1C(=O)c1cc2ccccc2o1 [compound 15] | 10 µM | 20 µM | –
14 | O=C1C=CCCN1S(=O)(=O)/C=C/c1ccccc1 [compound 16] | – | – | EC50 (H1703; [1]): 2.7 µM; EC50 (HeLa; Homo sapiens, HeLa, Table 1): 4.1 µM
15 | COc1cc(/C=C/C(=O)N2CCC=C(c3ccccc3)C2=O)cc(OC)c1OC [compound 18] | – | – | EC50 (H1703; [1]): > 20 µM; EC50 (HeLa; Homo sapiens, HeLa, Table 1): > 20 µM
16 | COc1cc(/C=C/C(=O)N2CCC=C(c3ccc(F)cc3)C2=O)cc(OC)c1OC [compound 20] | > 20 µM | > 20 µM | –
17 | CCC1=C(C)CN(C(=O)/C=C/c2cc(OC)c(OC)c(OC)c2)C1=O [compound 21] | > 20 µM | > 20 µM | –
18 | O=C1C=CCCN1C(=O)c1ccc2ccccc2c1 [compound 22] | 9 µM | 20 µM | –
19 | COc1cc(/C=C/C(=O)N2CCC(C)=CC2=O)cc(OC)c1OC [compound 26] | – | – | EC50 (H1703; Table 2): > 20 µM; EC50 (HeLa; Table 2): > 20 µM
20 | C/C(=C\C(=O)N1CCC=CC1=O)c1ccccc1 [compound 27] | – | – | EC50 (H1703; Table 2): 14 µM; EC50 (HeLa; Table 2): > 20 µM

Row | Structure (SMILES) | EC50 (H1703; [2]) | EC50 (HeLa; Homo sapiens, HeLa, Table 2) | further results
21 | O=C1C=CCCN1C(=O)c1cc2ccccc2s1 [compound 28] | – | – | EC50 (H1703; Table 2): 18 µM; EC50 (HeLa; Table 2): > 20 µM
22 | COc1cc(/C=C/C(=O)N2CCC=C(C#CC3(O)CCCCC3)C2=O)cc(OC)c1OC [compound 36] | 0.5 µM | 1.5 µM | –
23 | COc1cc(/C=C/C(=O)N2CCC=CC2=O)cc(OC)c1OCCN(CCOc1c(OC)cc(/C=C/C(=O)N2CCC=CC2=O)cc1OC)CCOc1c(OC)cc(/C=C/C(=O)N2CCC=CC2=O)cc1OC [compound 41] | 0.1 µM | 0.3 µM | –
24 | CC1=C(C(=O)N2CCC=CC2=O)Cc2ccccc21 [compound 42] | 12 µM | > 20 µM | –
25 | COc1cc(/C=C/C(=O)N2CCC=C(C#CC3=CCCCC3)C2=O)cc(OC)c1OC [compound 45] | 3 µM | 5 µM | –
26 | COc1cc(/C=C/C(=O)N2CC=CCC2=O)cc(OC)c1OC [compound 46] | 13 µM | > 20 µM | –
27 | COc1cc(/C=C/C(=O)N2CCC(C)=C(C)C2=O)cc(OC)c1OC [compound 47] | > 20 µM | > 20 µM | –
28 | COc1cc(/C=C/C(=O)N2CCC=C(C#Cc3ccc(OC(F)(F)F)cc3)C2=O)cc(OC)c1OC [compound 48] | 0.7 µM | 3 µM | –
29 | O=C1C=CCCN1C(=O)/C=C/c1ccccc1Cl [compound 49] | – | – | EC50 (H1703; Table 2): 4 µM; EC50 (HeLa; Table 2): 7.5 µM
30 | COc1cc(/C=C/C(=O)N2C(=O)C=CCC2c2ccccc2)cc(OC)c1OC (stereo not shown) [compound 50] | – | – | EC50 (H1703; Table 2): 3.6 µM; EC50 (HeLa; Table 2): 6.8 µM
31 | COc1cc(/C=C/C(=O)N2CC(c3cccs3)C=CC2=O)cc(OC)c1OC (stereo not shown) [compound 51] | – | – | EC50 (H1703; Table 2): 6.5 µM; EC50 (HeLa; Table 2): 15 µM
32 | COc1cc(/C=C/C(=O)N2CCC=C(c3ccccc3)C2=O)cc(OC)c1OC [compound 54] | – | – | EC50 (H1703; Table 2): > 20 µM; EC50 (HeLa; Table 2): > 20 µM
33 | O=C1C=CCCN1C(=O)/C=C/c1cccc(Br)c1 [compound 62] | 5 µM | 7 µM | –
34 | COc1cc(/C=C/C(=O)N2CCC=C(C#CCc3ccccc3)C2=O)cc(OC)c1OC [compound 63] | 2 µM | 10 µM | –
35 | COc1cc(CCC(=O)N2CCCCC2=O)cc(OC)c1OC [compound 65] | – | > 20 µM | –
36 | COc1cc(/C=C/C(=O)N2CCC=CC2=O)cc(OC)c1OCCN(C)CCOc1c(OC)cc(/C=C/C(=O)N2CCC=CC2=O)cc1OC [compound 67] | 0.2 µM | 0.5 µM | –
37 | COc1cc(/C=C/C(=O)N2CCC=C(C#Cc3ccc(F)cc3)C2=O)cc(OC)c1OC [compound 68] | 0.4 µM | 0.9 µM | –
38 | COc1cc(/C=C/C(=O)N2CCC=C(C#Cc3ccsc3)C2=O)cc(OC)c1OC [compound 69] | 1 µM | 2 µM | –
39 | COc1cc(/C=C/C(=O)N2CCC=C(c3ccc(Oc4ccccc4)cc3)C2=O)cc(OC)c1OC [compound 71] | > 20 µM | > 20 µM | –
40 | O=C(C#Cc1ccccc1)N1CCC=CC1=O [compound 75] | 0.91 µM | 4.1 µM | –

More lines, main results first:

Row | EC50 (H1703; [2]) | EC50 (HeLa; Homo sapiens, HeLa, Table 2) | Structure (SMILES) | further results
41 | 2 µM | 2 µM | COc1cc(/C=C/C(=O)N2C(=O)C=CCC2c2ccsc2)cc(OC)c1OC (stereo not shown) [Cpd. 7] | –
42 | 8 µM | > 20 µM | C=C(C)C(=O)NC(=O)/C=C/C [Cpd. 76, (E)-N-methacryloylbut-2-enamide] | –
43 | 2 µM | 4 µM | COc1cc(/C=C/C(=O)N2C(=O)C=CCC2c2cccs2)cc(OC)c1OC (stereo not shown) [compound 10] | –
44 | 6 µM | 7 µM | COc1cc(/C=C/C(=O)N2C(=O)C=CCC2C2CCCCC2)cc(OC)c1OC (stereo not shown) [compound 11] | –
45 | 5 µM | 8 µM | O=Cc1ccc(/C=C/C(=O)N2CCC=CC2=O)cc1 [compound 14] | –
46 | 1 µM | 3 µM | COc1cc(/C=C/C(=O)N2CCC=C(C#CC3CCCC3)C2=O)cc(OC)c1OC [compound 17] | –
47 | 5 µM | 6 µM | O=C1C=CCCN1C(=O)/C=C/c1cccc(C(F)(F)F)c1 [compound 18] | –
48 | – | > 20 µM | COC1=CC(=O)N(C(=O)/C=C/c2cc(OC)c(OC)c(OC)c2)C1 [compound 19] | –
49 | 0.8 µM | 3 µM | COc1cc(/C=C/C(=O)N2CCC=CC2=O)c(F)c(OC)c1OC [compound 23] | –
50 | > 20 µM | > 20 µM | COc1cc(/C=C/C(=O)N2CCC=C(c3cccnc3)C2=O)cc(OC)c1OC [compound 24] | –
51 | 0.9 µM | 2 µM | CCCCC#CC1=CCCN(C(=O)/C=C/c2cc(OC)c(OC)c(OC)c2)C1=O [compound 31] | –
52 | 1.5 µM | 4 µM | COc1cc(/C=C/C(=O)N2CCC=CC2=O)cc(OC)c1OCCN(C)C [compound 32] | –
53 | 5 µM | 15 µM | O=C1C=CCCN1C(=O)c1cc2ccccc2oc1=O [compound 34] | –
54 | 0.6 µM | 1.5 µM | COc1cc(/C=C/C(=O)N2CCC=C(C#Cc3ccccc3Cl)C2=O)cc(OC)c1OC [compound 35] | –
55 | 4 µM | 18 µM | COc1cc(/C=C(\C)C(=O)N2CCC=CC2=O)cc(OC)c1OC [compound 37] | –
56 | 1.5 µM | 5 µM | COc1cc(/C=C/C(=O)N2CCC=C(C#Cc3cccc(Cl)c3)C2=O)cc(OC)c1OC [compound 40] | –
57 | 0.7 µM | 1.2 µM | COc1cc(/C=C/C(=O)N2CCC=C(C#CC(C)(C)C)C2=O)cc(OC)c1OC [compound 43] | –
58 | > 20 µM | > 20 µM | COc1cc(/C=C/C(=O)N2CCC=C(C3CCCCC3)C2=O)cc(OC)c1OC [compound 44] | –
59 | 3 µM | > 20 µM | COc1cc(/C=C/C(=O)N2CCC=C(I)C2=O)cc(OC)c1OC [compound 55] | –
60 | 4 µM | 9 µM | CCCCCCCCCCC#CC1=CCCN(C(=O)/C=C/c2cc(OC)c(OC)c(OC)c2)C1=O [compound 57] | –
61 | 8 µM | 11 µM | COc1cc(/C=C(\F)C(=O)N2CCC=CC2=O)cc(OC)c1OC [compound 58] | –
62 | 1.5 µM | 3 µM | COc1cc(/C=C/C(=O)N2CCC=C(C#CC3CCCCC3)C2=O)cc(OC)c1OC [compound 59] | –
63 | 0.5 µM | 1.5 µM | COc1cc(/C=C/C(=O)N2CCC=C(C#Cc3ccccc3)C2=O)cc(OC)c1OC [compound 61] | –
64 | – | > 20 µM | COc1cc(/C=C/C(=O)N2CCC=C(c3ccc(C)cc3)C2=O)cc(OC)c1OC [compound 66] | –
65 | 10 µM | > 20 µM | O=C1C=CCCN1C(=O)/C(F)=C/c1ccccc1 [compound 70] | –
66 | 4.7 µM | 19 µM | C=C(C)C(=O)N1CCC=CC1=O [compound 73] | –
67 | 2.3 µM | 11 µM | O=C1C=CCCN1C(=O)/C=C/C(=O)N1CCC=CC1=O [compound 74] | –
